{
  "source": "patent US20250114313A1",
  "about": "“OLIGO-BENZAMIDE ANALOGS AND THEIR USE IN CANCER TREATMENT” (BOARD OF REGENTS, THE UNIVERSITY OF TEXAS SYSTEM, priority 2022, published 2025)",
  "key": {"vinculin": {"molecular_target": "T1, vinculin (Homo sapiens, UniProt P18206)", "T1 construct": "heat stability of LAL or vinculin protein in SUM-159 cells; endogenous in cells; host or cells: SUM-159", "T1 sequence (P18206 1-1066 isoform P18206-2)": "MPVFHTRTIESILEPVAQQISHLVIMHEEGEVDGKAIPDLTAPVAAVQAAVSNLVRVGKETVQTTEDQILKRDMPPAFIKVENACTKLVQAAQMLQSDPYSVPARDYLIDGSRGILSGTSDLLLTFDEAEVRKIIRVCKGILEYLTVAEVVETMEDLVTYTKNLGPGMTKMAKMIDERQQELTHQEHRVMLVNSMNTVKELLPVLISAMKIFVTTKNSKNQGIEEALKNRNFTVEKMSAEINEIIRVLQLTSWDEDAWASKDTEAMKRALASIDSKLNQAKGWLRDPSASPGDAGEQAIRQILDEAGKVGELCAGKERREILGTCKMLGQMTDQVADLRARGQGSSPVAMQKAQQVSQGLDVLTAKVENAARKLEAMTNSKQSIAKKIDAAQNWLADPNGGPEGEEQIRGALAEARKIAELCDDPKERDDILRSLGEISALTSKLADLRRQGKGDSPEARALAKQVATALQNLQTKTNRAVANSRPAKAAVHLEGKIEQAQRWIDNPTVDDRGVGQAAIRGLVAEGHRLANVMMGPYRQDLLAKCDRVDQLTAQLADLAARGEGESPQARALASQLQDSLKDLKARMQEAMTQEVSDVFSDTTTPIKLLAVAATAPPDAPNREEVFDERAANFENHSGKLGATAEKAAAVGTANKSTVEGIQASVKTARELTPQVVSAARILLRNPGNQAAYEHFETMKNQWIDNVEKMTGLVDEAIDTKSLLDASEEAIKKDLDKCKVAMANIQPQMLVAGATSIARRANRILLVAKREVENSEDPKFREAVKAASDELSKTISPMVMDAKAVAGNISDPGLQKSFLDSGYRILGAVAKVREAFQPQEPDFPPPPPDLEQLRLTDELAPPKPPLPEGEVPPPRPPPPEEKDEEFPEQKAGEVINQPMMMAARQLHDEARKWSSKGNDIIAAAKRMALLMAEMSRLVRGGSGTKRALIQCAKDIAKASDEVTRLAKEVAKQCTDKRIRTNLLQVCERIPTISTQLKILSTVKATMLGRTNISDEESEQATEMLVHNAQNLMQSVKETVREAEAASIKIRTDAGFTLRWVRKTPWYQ", "test": "Cellular thermal shift assay, vinculin", "format": "binding", "conditions": "10 μM, SUM-159 cells", "protocol": "Cellular Thermal Shift Assay (CETSA): Cellular Thermal Shift Assays were performed as described previously^36. Briefly, cells were treated with DMSO or 10 μM ERX-41 for 30 min, then trypsinized, pelleted and resuspended in PBS supplemented with Halt protease inhibitor cocktail (Thermo Scientific), with DMSO or 10 μM ERX-41. Resuspended cells were aliquoted into PCR strips. The cells were incubated in thermal cycler (Bio-rad) at gradient temperatures for 3 minutes, followed by incubation at 25° C. for 3 minutes. Then cells were snap-frozen in liquid nitrogen. Freeze-thaw the cells twice using liquid nitrogen. Then transfer samples into Eppendorf tubes, followed by briefly vortex and centrifuge at 20,000 g for 20 minutes at 4° C. Mix cleared cell lysates with ⅓ volume of 4× Laemmli sample buffer. After boiling, cell lysates were resolved in SDS-PAGE followed by western blotting."}, "TNBC cells (MDA-MB-231)": {"tested_on": "TNBC cells (MDA-MB-231)", "test": "Transmission electron microscopy of ER", "format": "cell-based, Human", "conditions": "1 μM, within 4 h", "protocol": "Transmission Electron Microscopy: DMSO or ERX-41 treated cells were fixed with 2.5% glutaraldehyde (Electron Microscopy Sciences) in 0.1 M sodium cacodylate pH7.4 buffer (Electron Microscopy Sciences) for 20 min at room temperature. After rinsing with 0.1 M sodium cacodylate pH7.4 buffer, cells were further fixed with 1% Osmium with 0.8% K3Fe(CN6) in 0.1 M sodium cacodylate pH7.4 buffer. After pre-staining with 4% uranyl acetate in 50% ethanol, cells were dehydrated with series concentrations of ethanol (from 50% to 100%). After transitioning from propylene oxide to resin and embedding in Embed 812 resin (Electron Microscopy Sciences), cells were located using light microscopy and trimmed out. 60-70 nm-thin sections were cut, mounted on formvar-coated grids, and viewed by a transmission electron microscope (Tecnai G2 spirit; FEI) equipped with a LaB6 source using a voltage of 120 kV."}, "[1]": {"tested_on": "normal human mammary epithelial cells (HMEC)", "test": "Cell viability (WST, MTT, CellTiter-Glo), HMEC", "format": "cell-based", "conditions": "at >1 μM, MTT or CellTiter-Glo", "protocol": "Cell viability assays: Cells were seeded in 96-well plates (2×10^3 cells/well) one day before the treatment. Cells were treated with varying concentrations of ERX-41 or ERX-11 analogs for 3-6 days. Then effects of ERX-41 or ERX-11 analogs on cell viability were measured in triplicate or sextuplicate with multiple biological replicates using the WST-1 (Promega), MTT as previously described^33 or CellTiter-Glo 2.0 (Promega) assays."}, "[2]": {"tested_on": "ovarian cancer PDX (OCa-PDX-38)", "test": "Ovarian cancer PDX OCa-PDX-38", "format": "in vivo, NSG mice", "conditions": "10 mg/kg daily", "protocol": "Animal Studies: All animal experiments were performed using UTHSA and UTSW IACUC approved protocols. For cell based xenograft tumor assays, TNBC cells (2×10^5-2×10^6) were mixed with an equal volume of matrigel and implanted in the mammary fat pads of 6-week-old female athymic nude mice as described^33. BALB/c mice were used for D2A1 syngeneic model. Once tumors reached measurable size, mice were divided into control (vehicle) and ERX-41 (10 mg/kg/oral) treatment groups. Mice bearing TNBC PDX tumors were purchased from Jackson laboratory (TM00089; TM00096; TM00098). TNBC PDX line UTPDX0001 establishment was earlier described^38. WHIM-20 ER+PDX model was purchased from Horizon Labs. OCa-PDX-38 was received from UTHSA ObGyn tissue procurement core. When tumors reached ˜750 mm^3 they were dissected into 2 mm^3 pieces and implanted into the mammary fat pads of 6 weeks old female SCID or NSG mice. When the tumor volume reached ˜200 mm^3, mice were randomized for treatment. The mice were monitored daily for adverse toxic effects and tumor volume was measured every 3-4 days using calipers. For establishing ES2 tumors, ES2/GFP/LUC cells were injected i.p. and tumors were measured twice a week using Xenogen in vivo imaging system. […] The mice were monitored daily for adverse toxic effects. […] The sections were scored by two independent evaluators blinded to the patient's clinical status."}, "LAL lipase activity": {"molecular_target": "T2, LAL lipase activity (Homo sapiens, UniProt P38571)", "T2 construct": "heat stability of LAL or vinculin protein in SUM-159 cells; endogenous in cells; host or cells: SUM-159", "T2 sequence (P38571 77-399)": "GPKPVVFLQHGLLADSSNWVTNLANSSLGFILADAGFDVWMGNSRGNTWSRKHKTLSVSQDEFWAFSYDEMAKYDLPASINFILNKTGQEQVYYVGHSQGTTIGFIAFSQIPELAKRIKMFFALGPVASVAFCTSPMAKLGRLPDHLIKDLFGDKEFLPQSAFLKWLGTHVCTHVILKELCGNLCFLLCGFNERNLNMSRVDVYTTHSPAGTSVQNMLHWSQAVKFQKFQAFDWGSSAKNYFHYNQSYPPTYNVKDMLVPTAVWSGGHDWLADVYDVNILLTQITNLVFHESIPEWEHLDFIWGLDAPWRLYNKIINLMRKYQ", "test": "Lipase activity assay (4-MUP), SUM-159 cell lysate", "format": "biochemical", "conditions": "SUM-159 cells; 30 μM", "protocol": "Lipase activity assay: Lipase activity assays were performed as described previously (Dairaku, et al)^37. Briefly, a 0.345 mM substrate solution was prepared from 1.2 mL of 13.3 mM 4-MUP and 42 mL of 100 mM sodium acetate buffer pH 4.0, 1.0% (v/v) Triton X-100 and 3.0 mL of 0.5% (w/v) cardiolipin. For the enzyme reaction, 50 μL of the substrate in buffer solution, 40 μL of diluted cell lysate and 10 μL of DMSO or 30 μM Lalistat2 or 30 μM ERX-41 were combined in a black 96-well plate. The plates were sealed with an adhesive aluminum film and incubated in a 37° C. incubator for 1 h. The reactions were terminated using 200 μL of 150 mM EDTA at pH 11.5. The fluorescence of the plates were read immediately with synergy H1 fluorescence microplate reader (BioTek) using a 365-nm excitation filter and a 450-nm emission filter. The LIPA lipase activity was calculated by subtracting the enzymatic activity of the inhibited (with Lalistat2) reaction from that of the uninhibited (without Lalistat2) reaction."}},
  "note": "Entries after “also recorded” stand apart in the source; their conditions may differ.",
  "data": [
    {"smiles": "CC(C)COc1cc(C(=O)Nc2ccc(C(=O)N[C@H]3CC[C@H](C)CC3)cc2OCC(C)C)ccc1NC(=O)c1ccc([N+](=O)[O-])c(OCCO)c1", "note": "[ERX-41]", "values": [
      {"measurement": "thermal stability of vinculin", "setting": "vinculin", "result": "did not affect vinculin thermal stability"},
      {"measurement": "ER morphology by TEM", "setting": "TNBC cells (MDA-MB-231)", "result": "dramatic dilation of the ER"},
      {"measurement": "effect on normal human mammary epithelial cells", "setting": "[1]", "result": "non-toxic; also recorded: did not have significant effect"},
      {"measurement": "activity against OCa-PDX-38", "setting": "[2]", "result": "has activity against"},
      {"measurement": "lipase activity of LIPA", "setting": "LAL lipase activity", "result": "no inhibition of lipase activity"}
    ]}
  ]
}
